The source of these data is patent publication US8329863B2, “Gonadotropin releasing hormone antagonists” (Oakwood Laboratories, LLC, priority 2004, dated 2012).

Series [1] can be described thus: Water solubility at room temperature. In kind it is physicochemical. Here is the method: Solubility of the novel GnRH antagonist was compared with that of orntide acetate at room temperature. In this experiment, 50 mg of the novel GnRH antagonist was weighed into a small glass container and 2 mL of purified water was added to it. […] An additional 3 mL of water was added, the solution mixed, and the pH was determined: 5.4. The same procedure was used to test the solubility of orntide acetate (known in the art as ornirelix).
Separately, another 50 mg aliquot was weighed out and 1 ml of water was added. This also dissolved. This is 50 mg/mL in concentration, which is 10 times what is possible to dissolve with orntide acetate.

The next series relates to testosterone. The experiment in a line: Testosterone suppression in vivo in the standard experimental rat model. Conditions: subcutaneous. Also noted: species or system male Sprague Dawley rats. On the procedure:
Briefly, male Sprague Dawley rats weighing approximately 300 g were purchased from Harlan (Indianapolis, Ind.) and used immediately after the quarantine period required by a University of Kentucky Animal Research Facility approved protocol.
The evaluation was conducted in two groups of rats. Group 1 included 6 rats to be administered with the novel GnRH antagonist. The other group was a control group consisting of 2 rats. The novel GnRH antagonist was administered subcutaneously (scapulae). Blood samples (1 mL) for testosterone level determinations were collected from the tail vein at 0, 1, 3, 6, 12, 24, and 48 hours. Serum was extracted by centrifugation at 2000 rpm for 15 min and stored at −20 C until determination of testosterone/LH levels. Rat plasma testosterone was determined using Active™ Testosterone RIA DSL-4000 kits purchased from Diagnostic Systems, Inc. Webster, Tex. To effect a sufficient washout period the doses were administered at weekly intervals.
A total of six rats were used for each dose tested. In the first week, each rat received a single dose of 15 μg. In the second week, the dose increased to 30 μg. Next, in the third week, each rat received a single dose of 60 μg. Table 2 is the control rat group with a total of 2 rats that received only vehicle.

Where two headings read alike, the source gives them in different places. Square brackets hold non-standard residues; d marks the D form. Peptide text beside a SMILES is read from it. * marks the point of attachment. dPhe(4-Cl) = N[C@H](Cc1ccc(Cl)cc1)C(=O)O; Nicotinoyl(6-NH2) = Nc1ccc(C(=O)*)cn1; d1Nal = N[C@H](Cc1cccc2ccccc12)C(=O)O; Lys(iPr) = CC(C)NCCCC[C@H](N)C(=O)O; d3Pal = N[C@H](Cc1cccnc1)C(=O)O; Picolinoyl = O=C(c1ccccn1)*; dOrn = NCCC[C@@H](N)C(=O)O

With `CC(=O)N[C@H](Cc1cccc2ccccc12)C(=O)N[C@H](Cc1ccc(Cl)cc1)C(=O)N[C@H](Cc1cccnc1)C(=O)N[C@@H](CO)C(=O)N[C@@H](CCCCNC(=O)c1ccccn1)C(=O)N[C@H](CCCNC(=O)c1ccc(N)nc1)C(=O)N[C@@H](CC(C)C)C(=O)N[C@@H](CCCCNC(C)C)C(=O)N1CCC[C@H]1C(=O)N[C@H](C)C(N)=O` [orntide acetate, DNal^1, DpCIPhe^2, D3Pal^3 Ser^4, PicLys^5, D(6ANic)Orn^6, Leu^7, IprLys^8, Pro^9, DAla^10-NH2] (Ac-[d1Nal][dPhe(4-Cl)][d3Pal]SK(Picolinoyl)[dOrn](Nicotinoyl(6-NH2))L[Lys(iPr)]P[dA]-NH2; N-terminus and C-terminus assumed), the solubility – broadly, the concentration that dissolves in the medium under given conditions – in series [1] (aqueous media, even at a pH lower than 5, read-out: solubility in aqueous media) is less than 5000 µg/mL; in series [1] (water, pH 5, at a pH of 5, read-out: water solubility), less than 5000 µg/mL. Moreover, the “gelling in aqueous media” value in series [1] (at concentrations less than 5 mg/mL) is on record as “tends to gel even at that low concentration”.
As to “AcDNal^1, DpCIPhe^2, D3Pal^3 Ser^4, NicLys^5, D(6ANic)Orn^6, Leu^7, IprLys^8, Pro^9, DAla^10NH2 [novel GnRH antagonist]”, the “testosterone level reached after the castration period” value in the series on testosterone (15 μg/rat, after about 12 hours) was found to be 1.5 ng/mL. Besides, in the series with testosterone (15 μg/rat, single dose), the “duration of chemical castration of testosterone (≦0.5 ng/ml)” value is reported as “about 12 hours”. Further, the “serum testosterone level at 6 hours” value in the series on testosterone (15 μg/rat, single dose, week 1, mean of 6 rats) is recorded as 0.2 ng/mL. The “testosterone level by 24 hours” value with testosterone (30 μg/rat, single dose) is “greater than 0.5 ng/mL”. For the same molecule, in the series on testosterone (30 μg/rat, single dose, week 2), the “duration of testosterone suppression” value was “at least 12 hours”. Further, the time to dissolve result in series [1] (50 mg in 2 mL purified water, relatively gentle mixing, room temperature) is recorded as “less than 30 seconds”. In addition, the “pH of the solution” value in series [1] (50 mg in 5 mL water (10 mg/mL)) was 5.4.
